Calls of active or inactive are those of the source. No cut-off for these calls is given here.
Key:
Type in all cases: protein assay
[1] = biological target: T1, Alpha-1,2-mannosidase (BT_3994) (Bacteroides thetaiotaomicron) (UniProt Q8A0M7); experiment: Activity of Bacteroides thetaiotaomicron GH92 alpha-mannosidase GH92 alpha-mannosidase 3994 assessed as mannose release at 1 mM after 16 hrs by HPLC relative to untreated control after 16 hrs by HPLC
T1 sequence (whole entry): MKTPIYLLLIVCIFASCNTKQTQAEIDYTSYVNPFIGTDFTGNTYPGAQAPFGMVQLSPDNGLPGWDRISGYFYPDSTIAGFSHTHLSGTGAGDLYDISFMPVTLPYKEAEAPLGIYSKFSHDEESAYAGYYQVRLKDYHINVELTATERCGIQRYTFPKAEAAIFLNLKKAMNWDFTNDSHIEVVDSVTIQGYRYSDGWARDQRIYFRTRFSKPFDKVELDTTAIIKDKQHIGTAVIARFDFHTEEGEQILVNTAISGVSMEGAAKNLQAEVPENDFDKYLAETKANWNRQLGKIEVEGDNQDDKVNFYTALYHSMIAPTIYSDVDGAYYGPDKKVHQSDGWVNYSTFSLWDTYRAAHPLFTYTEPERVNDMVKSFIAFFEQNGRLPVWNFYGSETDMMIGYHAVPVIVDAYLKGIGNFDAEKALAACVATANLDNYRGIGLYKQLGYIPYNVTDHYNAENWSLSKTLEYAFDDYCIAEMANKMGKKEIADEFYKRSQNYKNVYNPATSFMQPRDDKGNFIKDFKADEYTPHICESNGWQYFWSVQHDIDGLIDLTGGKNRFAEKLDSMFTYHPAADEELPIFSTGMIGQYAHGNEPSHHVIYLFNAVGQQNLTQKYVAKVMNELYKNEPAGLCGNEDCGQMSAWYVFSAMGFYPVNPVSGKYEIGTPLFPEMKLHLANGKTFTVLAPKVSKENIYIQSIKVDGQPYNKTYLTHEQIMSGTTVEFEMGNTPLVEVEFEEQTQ

[2] = biological target: T2, Alpha-1,2-mannosidase (BT_2111) (Bacteroides thetaiotaomicron) (UniProt Q8A5X5); experiment: Activity of Bacteroides thetaiotaomicron GH92 alpha-mannosidase GH92 alpha-mannosidase 2111 assessed as mannose release at 1 mM after 16 hrs by HPLC relative to untreated control after 16 hrs by HPLC
T2 sequence (whole entry): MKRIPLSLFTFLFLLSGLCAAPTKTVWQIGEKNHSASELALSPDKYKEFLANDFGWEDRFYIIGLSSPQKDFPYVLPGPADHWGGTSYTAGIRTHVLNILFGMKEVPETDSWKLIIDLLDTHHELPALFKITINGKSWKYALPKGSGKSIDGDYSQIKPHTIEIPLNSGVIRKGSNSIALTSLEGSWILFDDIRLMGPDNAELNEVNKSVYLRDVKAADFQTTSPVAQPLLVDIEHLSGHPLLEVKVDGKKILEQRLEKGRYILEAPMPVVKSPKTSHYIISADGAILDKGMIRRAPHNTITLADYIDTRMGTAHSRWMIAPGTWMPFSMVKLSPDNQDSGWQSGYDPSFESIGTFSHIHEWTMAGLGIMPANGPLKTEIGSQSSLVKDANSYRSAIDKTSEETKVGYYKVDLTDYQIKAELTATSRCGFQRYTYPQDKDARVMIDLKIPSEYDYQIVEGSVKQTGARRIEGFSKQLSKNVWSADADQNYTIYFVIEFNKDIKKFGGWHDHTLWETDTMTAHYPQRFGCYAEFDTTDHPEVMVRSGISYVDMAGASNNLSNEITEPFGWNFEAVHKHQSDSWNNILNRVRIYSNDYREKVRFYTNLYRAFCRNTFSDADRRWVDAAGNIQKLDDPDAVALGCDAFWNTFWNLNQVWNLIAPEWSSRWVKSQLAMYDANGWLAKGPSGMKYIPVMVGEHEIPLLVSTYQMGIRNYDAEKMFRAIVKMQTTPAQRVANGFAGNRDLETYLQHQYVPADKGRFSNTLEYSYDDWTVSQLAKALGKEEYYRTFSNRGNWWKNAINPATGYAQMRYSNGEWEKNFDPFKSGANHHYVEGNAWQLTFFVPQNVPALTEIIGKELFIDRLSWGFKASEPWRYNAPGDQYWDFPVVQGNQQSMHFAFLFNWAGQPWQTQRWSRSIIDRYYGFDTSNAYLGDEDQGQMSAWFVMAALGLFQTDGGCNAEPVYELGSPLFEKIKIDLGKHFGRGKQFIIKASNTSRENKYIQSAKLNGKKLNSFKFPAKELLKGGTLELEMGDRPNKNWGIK

[3] = biological target: T3, Alpha-1,2-mannosidase (BT_3990) (Bacteroides thetaiotaomicron) (UniProt Q8A0N1); experiment: Activity of Bacteroides thetaiotaomicron GH92 alpha-mannosidase GH92 alpha-mannosidase 3990 assessed as mannose release at 1 mM after 16 hrs by HPLC relative to untreated control after 16 hrs by HPLC
T3 sequence (whole entry): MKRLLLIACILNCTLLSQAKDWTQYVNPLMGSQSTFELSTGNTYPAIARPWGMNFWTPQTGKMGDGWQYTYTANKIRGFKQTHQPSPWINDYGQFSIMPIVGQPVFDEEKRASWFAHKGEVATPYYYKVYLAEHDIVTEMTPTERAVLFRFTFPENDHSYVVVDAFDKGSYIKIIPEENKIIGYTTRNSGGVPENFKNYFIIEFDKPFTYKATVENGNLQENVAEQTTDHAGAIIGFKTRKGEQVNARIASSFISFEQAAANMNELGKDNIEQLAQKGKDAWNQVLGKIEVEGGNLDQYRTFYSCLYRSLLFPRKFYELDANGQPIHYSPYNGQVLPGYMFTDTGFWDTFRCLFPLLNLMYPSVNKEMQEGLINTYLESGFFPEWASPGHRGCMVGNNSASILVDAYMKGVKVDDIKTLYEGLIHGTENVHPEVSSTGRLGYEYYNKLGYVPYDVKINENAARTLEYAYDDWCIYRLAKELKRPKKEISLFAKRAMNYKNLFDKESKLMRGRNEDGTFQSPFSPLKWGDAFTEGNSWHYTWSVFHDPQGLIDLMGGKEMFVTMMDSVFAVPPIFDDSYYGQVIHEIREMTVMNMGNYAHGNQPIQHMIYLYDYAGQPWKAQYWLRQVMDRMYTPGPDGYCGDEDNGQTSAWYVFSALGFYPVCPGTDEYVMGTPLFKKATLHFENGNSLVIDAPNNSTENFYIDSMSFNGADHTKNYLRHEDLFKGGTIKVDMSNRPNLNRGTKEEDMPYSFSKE

Activity [1] | Activity [2] | Activity [3] | Compound
inactive | inactive | inactive | OC[C@H]1O[C@H](OC[C@H]2O[C@H](O)[C@@H](O)[C@@H](O)[C@@H]2O)[C@@H](O)[C@@H](O)[C@@H]1O
inactive | inactive | 100% | OC[C@H]1O[C@H](O[C@H]2[C@@H](O)[C@H](O)[C@@H](CO)O[C@@H]2O)[C@@H](O)[C@@H](O)[C@@H]1O
– | inactive | 0.036% | OC[C@H]1O[C@H](O[C@@H]2[C@H](O)[C@@H](O)O[C@H](CO)[C@H]2O)[C@@H](O)[C@@H](O)[C@@H]1O
20% | inactive | 0.022% | OC[C@H]1O[C@H](O[C@H]2[C@H](O)[C@H](O)[C@@H](O)O[C@@H]2CO)[C@@H](O)[C@@H](O)[C@@H]1O

From ChEMBL document CHEMBL1250451, “Mechanistic insights into a Ca2+-dependent family of alpha-mannosidases in a human gut symbiont” (Nat Chem Biol, 2010)
